Legend:
S6K1 = S6K1 (Homo sapiens, UniProt P23443); experiment: Kinase profiling S6K1; assay type: biochemical
Text: (§1) Any value less that 25 is considered to be highly significant inhibition.

CAMKKb = CAMKKb (Homo sapiens, UniProt Q96RR4); experiment: Kinase profiling CAMKKb; assay type: biochemical
Text: as §1

LKB1 = biological target: T1, LKB1 (Homo sapiens, UniProt Q15831); experiment: Kinase profiling LKB1; assay type: biochemical
T1 sequence (Q15831 1-433): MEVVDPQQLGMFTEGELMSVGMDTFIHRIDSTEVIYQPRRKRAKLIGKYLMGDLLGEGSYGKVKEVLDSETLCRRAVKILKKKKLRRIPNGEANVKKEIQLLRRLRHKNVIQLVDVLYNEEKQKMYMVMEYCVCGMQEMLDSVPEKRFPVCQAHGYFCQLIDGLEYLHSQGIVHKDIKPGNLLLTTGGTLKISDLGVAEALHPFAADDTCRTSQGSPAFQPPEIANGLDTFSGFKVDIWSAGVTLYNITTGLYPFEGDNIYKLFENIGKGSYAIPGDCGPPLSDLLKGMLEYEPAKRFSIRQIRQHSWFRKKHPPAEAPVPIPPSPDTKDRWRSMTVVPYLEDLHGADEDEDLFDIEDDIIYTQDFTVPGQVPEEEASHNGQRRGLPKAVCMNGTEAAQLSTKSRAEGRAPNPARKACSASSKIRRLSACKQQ
T1 sequence (Q7RTN6 1-431 partner): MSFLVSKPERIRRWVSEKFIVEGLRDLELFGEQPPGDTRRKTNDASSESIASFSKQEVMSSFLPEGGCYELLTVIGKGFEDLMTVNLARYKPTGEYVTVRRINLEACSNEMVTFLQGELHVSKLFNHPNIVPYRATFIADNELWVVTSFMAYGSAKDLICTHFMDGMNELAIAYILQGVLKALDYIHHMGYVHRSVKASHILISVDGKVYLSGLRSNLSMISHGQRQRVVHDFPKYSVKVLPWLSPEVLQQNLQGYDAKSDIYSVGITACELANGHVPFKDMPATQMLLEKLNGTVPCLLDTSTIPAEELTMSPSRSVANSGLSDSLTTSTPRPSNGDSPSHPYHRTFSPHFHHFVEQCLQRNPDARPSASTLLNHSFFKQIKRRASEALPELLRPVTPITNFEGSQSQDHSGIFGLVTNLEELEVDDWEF
T1 sequence (Q9Y376 1-341 partner): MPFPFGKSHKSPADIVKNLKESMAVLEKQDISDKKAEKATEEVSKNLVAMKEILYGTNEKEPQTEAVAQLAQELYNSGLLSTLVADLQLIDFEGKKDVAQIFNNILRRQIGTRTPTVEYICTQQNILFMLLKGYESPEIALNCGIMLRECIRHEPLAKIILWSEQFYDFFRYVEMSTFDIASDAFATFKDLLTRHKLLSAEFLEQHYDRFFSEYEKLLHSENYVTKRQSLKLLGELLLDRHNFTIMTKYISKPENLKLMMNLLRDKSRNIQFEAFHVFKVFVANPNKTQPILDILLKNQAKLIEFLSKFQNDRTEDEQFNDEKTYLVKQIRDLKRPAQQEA
Text: as §1

AMPK (hum) = experiment: Kinase profiling AMPK (hum); assay type: biochemical, human
Text: as §1

HIPK2 = HIPK2 (Homo sapiens, UniProt Q9H2X6); experiment: Kinase profiling HIPK2; assay type: biochemical
Text: as §1

PAK4 = PAK4 (Homo sapiens, UniProt O96013); experiment: Kinase profiling PAK4; assay type: biochemical
Text: as §1

MST2 = biological target: T2, MST2 (Homo sapiens, UniProt Q13188); experiment: Kinase profiling MST2; assay type: biochemical
T2 sequence (Q13188 1-491): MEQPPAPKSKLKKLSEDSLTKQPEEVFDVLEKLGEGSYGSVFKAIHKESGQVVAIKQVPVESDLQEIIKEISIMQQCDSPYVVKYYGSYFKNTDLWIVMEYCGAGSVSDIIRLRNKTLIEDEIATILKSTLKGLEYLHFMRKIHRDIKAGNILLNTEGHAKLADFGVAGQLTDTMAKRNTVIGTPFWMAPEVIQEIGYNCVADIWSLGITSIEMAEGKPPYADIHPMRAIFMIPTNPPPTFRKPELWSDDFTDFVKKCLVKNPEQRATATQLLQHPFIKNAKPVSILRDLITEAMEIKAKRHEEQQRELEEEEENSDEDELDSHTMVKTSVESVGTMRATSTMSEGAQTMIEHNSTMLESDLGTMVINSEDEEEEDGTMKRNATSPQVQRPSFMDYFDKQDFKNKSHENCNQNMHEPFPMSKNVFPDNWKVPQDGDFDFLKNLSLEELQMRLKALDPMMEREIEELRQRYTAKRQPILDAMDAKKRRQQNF
Text: as §1

TAK1 = biological target: T3, TAK1 (Homo sapiens, UniProt O43318); experiment: Kinase profiling TAK1; assay type: biochemical
T3 sequence (O43318 1-303 limits assumed): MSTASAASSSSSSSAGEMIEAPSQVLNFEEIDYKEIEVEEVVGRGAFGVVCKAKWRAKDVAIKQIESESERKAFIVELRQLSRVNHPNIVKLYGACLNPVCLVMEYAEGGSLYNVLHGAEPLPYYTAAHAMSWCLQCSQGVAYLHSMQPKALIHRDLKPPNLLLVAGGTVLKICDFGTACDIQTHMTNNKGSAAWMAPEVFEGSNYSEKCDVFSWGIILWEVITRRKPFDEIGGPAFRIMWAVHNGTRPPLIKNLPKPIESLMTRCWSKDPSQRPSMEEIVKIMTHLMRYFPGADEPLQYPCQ
T3 sequence (Q15750 437-504 partner limits assumed): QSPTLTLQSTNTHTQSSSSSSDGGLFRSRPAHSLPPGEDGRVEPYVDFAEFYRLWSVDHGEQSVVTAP
Text: as §1

MKK6 = biological target: T4, MKK6 (Homo sapiens, UniProt P52564); experiment: Kinase profiling MKK6; assay type: biochemical; conditions: 100 micromolar inhibitor concentration; 100 is no change
T4 sequence (P52564 1-334): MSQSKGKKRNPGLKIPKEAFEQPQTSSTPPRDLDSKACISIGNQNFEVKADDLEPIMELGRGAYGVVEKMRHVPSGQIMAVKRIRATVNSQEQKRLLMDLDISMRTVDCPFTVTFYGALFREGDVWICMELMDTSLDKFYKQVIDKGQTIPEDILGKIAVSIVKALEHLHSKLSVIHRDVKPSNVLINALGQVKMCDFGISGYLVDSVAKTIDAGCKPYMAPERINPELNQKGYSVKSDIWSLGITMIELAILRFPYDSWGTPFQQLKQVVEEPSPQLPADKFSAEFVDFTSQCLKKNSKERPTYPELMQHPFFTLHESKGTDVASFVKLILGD
Text: as §1

RSK2 = RSK2 (Homo sapiens, UniProt P51812); experiment: Kinase profiling RSK2; assay type: biochemical; conditions: 100 micromolar inhibitor concentration; 100 is no change
Text: as §1

PKCγ = PKCγ (Homo sapiens, UniProt P05129); experiment: Kinase profiling PKCγ; assay type: biochemical; conditions: 100 micromolar inhibitor concentration; 100 is no change
Text: as §1

STK33 = STK33 (Homo sapiens, UniProt Q9BYT3); experiment: Kinase profiling STK33; assay type: biochemical; conditions: 100 micromolar inhibitor concentration; 100 is no change
Text: as §1

[1] = 100 micromolar inhibitor concentration, 100 is no change
[2] = 100 micromolar inhibitor, 100 = no change

Sequence of RSK2 (P51812 whole entry, species assumed): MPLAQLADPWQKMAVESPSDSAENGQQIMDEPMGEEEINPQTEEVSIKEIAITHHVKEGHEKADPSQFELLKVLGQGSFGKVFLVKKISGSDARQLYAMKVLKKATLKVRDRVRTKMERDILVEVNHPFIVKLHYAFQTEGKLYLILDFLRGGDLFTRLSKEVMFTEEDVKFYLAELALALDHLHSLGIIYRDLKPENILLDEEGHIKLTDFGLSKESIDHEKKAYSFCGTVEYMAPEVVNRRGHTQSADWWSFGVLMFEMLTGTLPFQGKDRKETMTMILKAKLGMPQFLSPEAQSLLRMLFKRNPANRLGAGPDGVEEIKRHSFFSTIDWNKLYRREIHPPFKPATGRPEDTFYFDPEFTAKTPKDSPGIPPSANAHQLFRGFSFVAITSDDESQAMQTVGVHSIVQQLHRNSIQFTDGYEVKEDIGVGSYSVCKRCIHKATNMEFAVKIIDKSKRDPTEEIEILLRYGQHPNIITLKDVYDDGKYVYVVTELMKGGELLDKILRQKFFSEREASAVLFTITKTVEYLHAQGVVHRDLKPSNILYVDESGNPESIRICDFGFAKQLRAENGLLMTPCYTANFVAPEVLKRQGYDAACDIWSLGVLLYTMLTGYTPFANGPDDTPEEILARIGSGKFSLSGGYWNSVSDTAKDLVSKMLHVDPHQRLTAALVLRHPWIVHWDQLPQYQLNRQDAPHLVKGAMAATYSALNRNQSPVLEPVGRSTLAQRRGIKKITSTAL
Sequence of S6K1 (P23443 whole entry, species assumed): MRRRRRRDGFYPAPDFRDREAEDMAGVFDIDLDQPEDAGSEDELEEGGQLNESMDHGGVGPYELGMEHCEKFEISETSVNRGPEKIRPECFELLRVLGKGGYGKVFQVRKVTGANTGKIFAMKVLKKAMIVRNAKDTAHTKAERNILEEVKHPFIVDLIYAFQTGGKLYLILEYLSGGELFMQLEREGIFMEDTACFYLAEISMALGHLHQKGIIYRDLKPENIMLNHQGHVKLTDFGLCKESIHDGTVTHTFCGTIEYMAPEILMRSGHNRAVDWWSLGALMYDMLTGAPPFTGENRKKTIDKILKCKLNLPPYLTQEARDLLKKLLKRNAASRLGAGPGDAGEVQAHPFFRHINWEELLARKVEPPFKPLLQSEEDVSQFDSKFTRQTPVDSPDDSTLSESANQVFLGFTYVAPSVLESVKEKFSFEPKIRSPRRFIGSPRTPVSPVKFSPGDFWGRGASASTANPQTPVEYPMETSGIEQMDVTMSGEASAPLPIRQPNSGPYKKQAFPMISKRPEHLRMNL
Sequence of STK33 (Q9BYT3 whole entry, species assumed): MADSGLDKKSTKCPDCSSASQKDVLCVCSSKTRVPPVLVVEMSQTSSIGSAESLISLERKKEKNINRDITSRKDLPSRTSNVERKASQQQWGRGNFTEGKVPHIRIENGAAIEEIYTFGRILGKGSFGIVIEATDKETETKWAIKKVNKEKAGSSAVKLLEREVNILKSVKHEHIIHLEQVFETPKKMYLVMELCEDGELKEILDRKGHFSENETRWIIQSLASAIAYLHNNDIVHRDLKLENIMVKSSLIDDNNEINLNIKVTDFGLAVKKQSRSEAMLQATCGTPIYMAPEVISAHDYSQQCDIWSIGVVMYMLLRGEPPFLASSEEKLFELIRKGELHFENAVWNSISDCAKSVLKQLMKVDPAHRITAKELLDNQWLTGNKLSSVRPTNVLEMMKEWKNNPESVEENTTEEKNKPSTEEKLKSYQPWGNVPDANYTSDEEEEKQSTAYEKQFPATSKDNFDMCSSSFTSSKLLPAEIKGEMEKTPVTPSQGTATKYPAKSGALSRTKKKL
Sequence of CAMKKb (Q96RR4 whole entry, species assumed): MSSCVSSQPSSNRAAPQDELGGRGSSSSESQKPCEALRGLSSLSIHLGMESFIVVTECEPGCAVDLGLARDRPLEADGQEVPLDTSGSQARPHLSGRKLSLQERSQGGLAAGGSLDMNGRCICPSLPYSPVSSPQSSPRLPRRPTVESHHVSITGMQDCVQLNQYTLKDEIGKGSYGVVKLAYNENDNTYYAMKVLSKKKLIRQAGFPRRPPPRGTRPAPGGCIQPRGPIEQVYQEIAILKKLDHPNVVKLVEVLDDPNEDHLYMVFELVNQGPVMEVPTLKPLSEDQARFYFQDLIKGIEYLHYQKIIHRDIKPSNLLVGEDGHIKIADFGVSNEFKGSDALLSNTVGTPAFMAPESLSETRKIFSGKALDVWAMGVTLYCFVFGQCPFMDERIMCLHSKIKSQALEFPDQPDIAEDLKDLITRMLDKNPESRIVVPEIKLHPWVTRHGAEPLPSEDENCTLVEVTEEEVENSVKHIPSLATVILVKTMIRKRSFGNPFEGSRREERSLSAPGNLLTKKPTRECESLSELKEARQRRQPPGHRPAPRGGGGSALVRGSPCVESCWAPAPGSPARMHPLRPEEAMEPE
Sequence of PAK4 (O96013 whole entry, species assumed): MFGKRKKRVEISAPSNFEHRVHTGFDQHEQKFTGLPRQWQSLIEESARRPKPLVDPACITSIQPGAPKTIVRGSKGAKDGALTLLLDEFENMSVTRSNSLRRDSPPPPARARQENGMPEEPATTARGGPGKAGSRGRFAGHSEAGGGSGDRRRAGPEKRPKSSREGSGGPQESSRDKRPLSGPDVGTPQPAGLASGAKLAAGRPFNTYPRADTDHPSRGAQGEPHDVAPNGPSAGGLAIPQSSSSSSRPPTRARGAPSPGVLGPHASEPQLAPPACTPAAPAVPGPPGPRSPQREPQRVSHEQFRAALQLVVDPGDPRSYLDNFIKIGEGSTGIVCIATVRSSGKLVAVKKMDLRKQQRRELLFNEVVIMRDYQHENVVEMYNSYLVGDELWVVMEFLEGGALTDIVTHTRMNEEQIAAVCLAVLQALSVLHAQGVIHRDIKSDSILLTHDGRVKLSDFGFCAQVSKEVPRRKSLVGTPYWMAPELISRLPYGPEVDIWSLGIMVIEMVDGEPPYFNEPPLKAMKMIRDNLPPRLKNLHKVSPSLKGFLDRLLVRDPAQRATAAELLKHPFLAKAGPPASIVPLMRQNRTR
Sequence of HIPK2 (Q9H2X6 whole entry, species assumed): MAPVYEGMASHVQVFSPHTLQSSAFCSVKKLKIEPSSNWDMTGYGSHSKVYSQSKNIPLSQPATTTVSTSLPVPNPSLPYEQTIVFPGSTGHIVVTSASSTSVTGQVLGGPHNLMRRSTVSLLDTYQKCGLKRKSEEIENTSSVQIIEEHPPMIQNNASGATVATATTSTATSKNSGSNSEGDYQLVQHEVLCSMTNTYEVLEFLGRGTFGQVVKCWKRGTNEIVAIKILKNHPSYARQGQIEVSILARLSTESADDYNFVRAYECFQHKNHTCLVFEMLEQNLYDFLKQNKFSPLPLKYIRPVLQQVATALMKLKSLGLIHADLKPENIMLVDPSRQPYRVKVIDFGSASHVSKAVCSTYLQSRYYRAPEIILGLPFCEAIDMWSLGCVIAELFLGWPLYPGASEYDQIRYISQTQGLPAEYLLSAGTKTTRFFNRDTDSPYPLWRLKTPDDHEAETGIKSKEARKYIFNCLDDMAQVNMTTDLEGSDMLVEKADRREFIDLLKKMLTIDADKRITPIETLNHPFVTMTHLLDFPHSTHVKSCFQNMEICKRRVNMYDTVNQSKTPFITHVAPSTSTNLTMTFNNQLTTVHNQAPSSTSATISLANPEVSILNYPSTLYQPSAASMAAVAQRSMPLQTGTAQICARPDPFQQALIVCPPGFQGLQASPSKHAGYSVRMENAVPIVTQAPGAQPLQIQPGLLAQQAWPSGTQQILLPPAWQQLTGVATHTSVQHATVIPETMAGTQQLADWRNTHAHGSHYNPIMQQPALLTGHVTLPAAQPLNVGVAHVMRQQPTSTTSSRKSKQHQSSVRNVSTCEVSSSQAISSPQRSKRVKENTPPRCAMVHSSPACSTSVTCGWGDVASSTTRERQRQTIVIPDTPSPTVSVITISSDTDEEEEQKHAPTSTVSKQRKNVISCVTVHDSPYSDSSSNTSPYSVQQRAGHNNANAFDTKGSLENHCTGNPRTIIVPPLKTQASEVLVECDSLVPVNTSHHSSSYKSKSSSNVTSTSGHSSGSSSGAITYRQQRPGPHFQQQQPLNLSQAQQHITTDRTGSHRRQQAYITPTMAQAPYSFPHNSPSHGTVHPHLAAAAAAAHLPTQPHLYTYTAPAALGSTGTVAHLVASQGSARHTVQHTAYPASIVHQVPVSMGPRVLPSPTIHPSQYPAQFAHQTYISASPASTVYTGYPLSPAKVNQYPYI

Row | Structure (SMILES) | residual kinase activity, MKK6 (MKK6) | residual kinase activity, RSK2 (RSK2) | residual kinase activity, S6K1 (S6K1; [1]) | residual kinase activity, PKCγ (PKCγ) | residual kinase activity, STK33 (STK33) | also measured
1 | CC(=O)Nc1nc2ccc([N+](=O)[O-])cc2s1 [Compound 13-10] |  |  |  |  |  | remaining activity at 100 µM (S6K1; 100 micromolar inhibitor concentration, 100 is no change, read-out: residual kinase activity, S6K1): 65%; remaining activity at 100 µM (CAMKKb; 100 micromolar inhibitor concentration, 100 is no change, read-out: residual kinase activity, CAMKKb): 73%; remaining activity at 100 µM (LKB1; 100 micromolar inhibitor concentration, 100 is no change, read-out: residual kinase activity, LKB1): 73%; residual kinase activity, AMPK (hum) (AMPK (hum); [1]): 70; remaining activity at 100 µM (HIPK2; 100 micromolar inhibitor concentration, 100 is no change, read-out: residual kinase activity, HIPK2): 8%; remaining activity at 100 µM (PAK4; 100 micromolar inhibitor concentration, 100 is no change, read-out: residual kinase activity, PAK4): 86%; remaining activity at 100 µM (MST2; 100 micromolar inhibitor concentration, 100 is no change, read-out: residual kinase activity, MST2): 97%; remaining activity at 100 µM (TAK1; 100 micromolar inhibitor concentration, 100 is no change, read-out: residual kinase activity, TAK1): 58%
2 | COc1cccc(NC(=O)Nc2nc3cc(O)ccc3s2)c1 [Compound 13-62] |  |  |  |  |  | residual kinase activity, S6K1 (S6K1; [2]): 22; residual kinase activity, CAMKKb (CAMKKb; [2]): 25; residual kinase activity, LKB1 (LKB1; [2]): 91; residual kinase activity, AMPK (hum) (AMPK (hum); [2]): 23; residual kinase activity, HIPK2 (HIPK2; [2]): 23; residual kinase activity, PAK4 (PAK4; [2]): 22; residual kinase activity, MST2 (MST2; [2]): 3; residual kinase activity, TAK1 (TAK1; [2]): 11
3 | COc1ccc2sc(NC(=O)c3ccc(NC(C)=O)cc3)nc2c1 [MS:LY-2-77] | 111 | 81 | 94 | 94 | 99 | 
4 | COc1ccc2sc(NC(=O)c3cccc(NC(C)=O)c3)nc2c1 [MS:LY-2-85] | 99 | 32 | 50 | 80 | 75 | 
5 | CC(=O)Nc1ccc(C(=O)Nc2nc3cc(O)ccc3s2)cc1 [MS:LY-2-87] | 107 | 28 | 39 | 74 | 51 | 
6 | CC(=O)Nc1cccc(C(=O)Nc2nc3cc(O)ccc3s2)c1 [MS:LY-2-89] | 98 | 8 | 14 | 63 | 37 | 
